Assay [1] has as its target T1, TRKC (Homo sapiens, UniProt Q16288).
T1 construct: purchased life technologies PV3617
Kind of assay: Z′-LYTE kinase activity assay, TRKC. Type of assay: biochemical. Particulars: ATP 50 uM. The source says: (§1) Kinase activity assay: Z′-LYTE™ technology (detection by fluorescence, enzyme-conjugated format, based on the difference in sensitivity of phosphorylated and non-phosphorylated peptides to proteolytic cleavage) was applied, and using the principle of fluorescence resonance energy transfer (FRET), a Z′-LYTE™ FRET peptide substrate (Z′-LYTE™ Tyrosine 1 Peptide Substrate, Invitrogen, PV3190), and a secondary reaction were used to detect the inhibitory activity of the compounds on TRKs (TRK1, TRK2, TRK3) (life technologies, PV3144, PV3616, PV3617).
(§2) Enzymatic reaction: In a 384-well plate, 5 μL of an enzyme-substrate system (50 mM HEPES pH 7.5, 0.01% BRIJ-35, 10 mM MgCl2, 1 mM EGTA, 2 μM Tyr 01 Peptide Substrate) was added and 5 nL of compound (concentration gradient) was transferred thereto by using the echo520 ultramicro liquid pipetting system. […] After shaking and mixing, centrifuging was performed. A reaction was carried out at 30° C. in the dark for 1.5 hours.
(§3) The data were analyzed as follows:
(§4) IC50 values were calculated by using GraphPad Prism 5.0 software.

The target in assay [2] is T2, BaF3-CD74-NTRK1 (Homo sapiens, UniProt P04629).
T2 construct: fused on or other part: P04233 (HLA class II histocompatibility antigen gamma chain)
Description: Cell proliferation inhibition (CCK-8), BaF3-CD74-NTRK1 stable strain. Type of assay: cell-based, mouse. The conditions noted are these: BaF3-CD74-NTRK1, 72 hours. The gist of the method:
(§5)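 Ba/F3 cells stably electroporated with ETV6-NTRK3, CD74-NTRK1 or ETV6-NTRK2, selected with G418 and grown without IL3, then cloned by limiting dilution.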

Assay [3] deals with T3, BaF3-ETV6-NTRK3 (Homo sapiens, UniProt Q16288).
T3 construct: fused on or other part: P41212 (Transcription factor ETV6)
Description: Cell proliferation inhibition (CCK-8), BaF3-ETV6-NTRK3 stable strain. Type of assay: cell-based, mouse. Particulars: BaF3-ETV6-NTRK3, 72 hours. Put shortly:
as §5

Assay [4] deals with T4, TRKB (Homo sapiens, UniProt Q16620).
T4 construct: purchased life technologies PV3616
Kind of assay: Z′-LYTE kinase activity assay, TRKB. The conditions noted are these: ATP 25 uM. Type of assay: biochemical.
Source text: as §1, §2, §3
(§6) Phosphorylation ratio=1−{(emission ratio×F100%−C100%)/[C0%−C100%+emission ratio×(F100%−F0%)]}×100;
(§7) Inhibition rate=100×(1−compound phosphorylation ratio/negative control phosphorylation ratio).
as §4

Assay [5] concerns the target T5, BaF3-ETV6-NTRK2 (Homo sapiens, UniProt Q16620).
T5 construct: fused on or other part: P41212 (Transcription factor ETV6)
Description: Cell proliferation inhibition (CCK-8), BaF3-ETV6-NTRK2 stable strain. Type of assay: cell-based, mouse. The conditions noted are these: BaF3-ETV6-NTRK2, 72 hours. The gist of the method: as §5

Assay [6] addresses T6, TRKA (Homo sapiens, UniProt P04629).
T6 construct: purchased life technologies PV3144
Kind of assay: Z′-LYTE kinase activity assay, TRKA. Type of assay: biochemical. The conditions noted are these: ATP 400 uM.
Source text: as §1, §2, §3, §6, §7, §4

SMILES strings stand for the structures. Bounds are passed on as bounds.

T3 sequence (Q16288 whole entry, the tested form may be a part): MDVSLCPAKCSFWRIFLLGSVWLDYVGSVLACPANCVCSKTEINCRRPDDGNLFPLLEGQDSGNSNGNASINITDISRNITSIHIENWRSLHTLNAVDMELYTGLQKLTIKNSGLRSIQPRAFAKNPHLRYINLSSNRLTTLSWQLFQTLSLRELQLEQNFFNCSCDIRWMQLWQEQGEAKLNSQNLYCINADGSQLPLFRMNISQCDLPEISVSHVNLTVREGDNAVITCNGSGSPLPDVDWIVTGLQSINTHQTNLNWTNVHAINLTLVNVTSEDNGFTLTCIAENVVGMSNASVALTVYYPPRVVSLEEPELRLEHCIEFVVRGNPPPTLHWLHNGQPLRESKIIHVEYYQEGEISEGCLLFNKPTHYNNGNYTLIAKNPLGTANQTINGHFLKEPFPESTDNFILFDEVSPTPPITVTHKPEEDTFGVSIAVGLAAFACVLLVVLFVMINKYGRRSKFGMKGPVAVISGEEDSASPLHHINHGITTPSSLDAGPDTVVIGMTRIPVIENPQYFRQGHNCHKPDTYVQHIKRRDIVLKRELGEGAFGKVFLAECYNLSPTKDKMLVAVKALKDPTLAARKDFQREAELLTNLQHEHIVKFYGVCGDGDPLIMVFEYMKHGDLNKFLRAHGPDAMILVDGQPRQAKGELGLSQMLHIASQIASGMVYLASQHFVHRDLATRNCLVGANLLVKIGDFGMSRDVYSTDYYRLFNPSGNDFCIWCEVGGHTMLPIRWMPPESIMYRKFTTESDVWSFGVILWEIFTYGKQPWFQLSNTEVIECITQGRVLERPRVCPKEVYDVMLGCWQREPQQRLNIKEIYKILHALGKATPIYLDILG
T1 sequence (Q16288 32-839): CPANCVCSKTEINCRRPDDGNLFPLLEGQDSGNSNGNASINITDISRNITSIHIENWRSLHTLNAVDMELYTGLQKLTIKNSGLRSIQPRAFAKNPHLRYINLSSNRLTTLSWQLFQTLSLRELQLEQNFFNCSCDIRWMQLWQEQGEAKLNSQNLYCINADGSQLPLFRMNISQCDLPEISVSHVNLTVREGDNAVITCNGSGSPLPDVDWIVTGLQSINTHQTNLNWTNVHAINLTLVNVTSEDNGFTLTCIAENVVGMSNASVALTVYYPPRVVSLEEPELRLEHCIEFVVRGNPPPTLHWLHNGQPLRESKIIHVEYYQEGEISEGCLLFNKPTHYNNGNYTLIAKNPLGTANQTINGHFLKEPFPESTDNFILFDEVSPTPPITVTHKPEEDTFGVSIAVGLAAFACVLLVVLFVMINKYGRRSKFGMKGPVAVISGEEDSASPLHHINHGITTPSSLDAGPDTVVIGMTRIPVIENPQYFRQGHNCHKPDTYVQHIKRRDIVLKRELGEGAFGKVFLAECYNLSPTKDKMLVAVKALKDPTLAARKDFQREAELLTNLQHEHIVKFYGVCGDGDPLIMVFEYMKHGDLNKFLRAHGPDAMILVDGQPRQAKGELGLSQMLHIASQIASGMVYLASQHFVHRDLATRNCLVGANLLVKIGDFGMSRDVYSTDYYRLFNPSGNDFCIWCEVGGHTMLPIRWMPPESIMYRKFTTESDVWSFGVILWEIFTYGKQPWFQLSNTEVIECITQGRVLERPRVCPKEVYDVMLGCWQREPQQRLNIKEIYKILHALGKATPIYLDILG
T6 sequence (P04629 440-796 limits assumed): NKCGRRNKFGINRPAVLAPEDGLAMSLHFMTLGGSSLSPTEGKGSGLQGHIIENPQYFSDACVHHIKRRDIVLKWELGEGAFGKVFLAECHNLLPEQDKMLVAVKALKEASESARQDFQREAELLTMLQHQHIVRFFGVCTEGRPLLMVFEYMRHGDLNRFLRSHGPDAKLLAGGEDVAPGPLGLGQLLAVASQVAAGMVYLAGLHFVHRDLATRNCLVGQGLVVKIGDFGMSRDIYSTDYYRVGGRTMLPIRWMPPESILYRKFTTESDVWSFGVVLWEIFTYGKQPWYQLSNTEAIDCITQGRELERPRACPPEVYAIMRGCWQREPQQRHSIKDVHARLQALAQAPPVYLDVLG
T2 sequence (P04629 510-796 limits assumed): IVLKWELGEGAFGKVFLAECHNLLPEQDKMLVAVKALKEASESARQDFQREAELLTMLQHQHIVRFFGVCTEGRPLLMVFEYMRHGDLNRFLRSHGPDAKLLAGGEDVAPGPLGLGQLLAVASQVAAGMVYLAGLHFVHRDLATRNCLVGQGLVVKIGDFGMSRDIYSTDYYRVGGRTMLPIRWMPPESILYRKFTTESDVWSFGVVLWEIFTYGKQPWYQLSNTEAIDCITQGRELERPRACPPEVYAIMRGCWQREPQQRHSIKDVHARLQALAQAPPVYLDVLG
T4 sequence (Q16620 32-822): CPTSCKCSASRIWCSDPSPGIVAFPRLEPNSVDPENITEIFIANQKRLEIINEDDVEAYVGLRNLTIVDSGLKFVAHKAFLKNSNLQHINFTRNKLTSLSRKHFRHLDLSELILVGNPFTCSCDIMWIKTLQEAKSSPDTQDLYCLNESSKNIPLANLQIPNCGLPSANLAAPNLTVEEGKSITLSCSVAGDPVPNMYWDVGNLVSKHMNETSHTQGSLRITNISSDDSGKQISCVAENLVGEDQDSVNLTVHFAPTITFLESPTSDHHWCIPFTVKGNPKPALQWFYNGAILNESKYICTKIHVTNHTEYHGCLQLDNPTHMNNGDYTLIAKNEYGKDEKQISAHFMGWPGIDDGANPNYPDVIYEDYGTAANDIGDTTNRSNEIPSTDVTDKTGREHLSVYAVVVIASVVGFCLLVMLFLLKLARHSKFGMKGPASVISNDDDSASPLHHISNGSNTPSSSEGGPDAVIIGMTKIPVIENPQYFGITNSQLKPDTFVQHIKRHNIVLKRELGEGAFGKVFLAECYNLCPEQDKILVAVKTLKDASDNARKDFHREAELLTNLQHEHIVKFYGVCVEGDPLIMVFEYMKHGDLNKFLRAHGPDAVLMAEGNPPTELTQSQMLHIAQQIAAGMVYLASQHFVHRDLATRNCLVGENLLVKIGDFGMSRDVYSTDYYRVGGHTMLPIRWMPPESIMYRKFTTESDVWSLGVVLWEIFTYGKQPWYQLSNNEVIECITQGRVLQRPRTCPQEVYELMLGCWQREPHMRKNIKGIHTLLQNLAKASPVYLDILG
T5 sequence (Q16620 538-822 limits assumed): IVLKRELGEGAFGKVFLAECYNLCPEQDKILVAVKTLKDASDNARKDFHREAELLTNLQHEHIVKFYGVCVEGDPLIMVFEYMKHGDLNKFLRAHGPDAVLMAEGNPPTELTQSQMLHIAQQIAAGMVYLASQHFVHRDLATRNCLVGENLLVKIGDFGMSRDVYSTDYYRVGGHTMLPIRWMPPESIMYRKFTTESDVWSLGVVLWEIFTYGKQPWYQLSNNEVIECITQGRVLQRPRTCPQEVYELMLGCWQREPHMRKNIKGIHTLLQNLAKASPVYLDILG

For `Fc1cccc(Cc2ccc3[nH]nc(/C=C/c4ccccn4)c3c2)c1F` [DYX-082, (E)-5-(2,3-difluorobenzyl)-3-(2-(pyridin-2-yl)vinyl)-1H-indazole], the 50% inhibitory concentration (IC50) in assay [1] amounted to 8.5 nM; in assay [2] it was 584 nM; in assay [3] it was 159 nM; in assay [4], 67.8 nM; in assay [5], 248 nM; in assay [6], 15.2 nM.
Regarding `Fc1cc(Cc2ccc3[nH]nc(/C=C/c4ccccn4)c3c2)cc(F)c1F` [DYX-083, (E)-3-(2-(pyridin-2-yl)vinyl)-5-(3,4,5-trifluorobenzyl)-1H-indazole], the IC50 is 191 nM in assay [1]; 7500 nM in assay [2]; 3310 nM in assay [3]; above 1000 nM in assay [4]; 3020 nM in assay [5]; 628 nM in assay [6].
Consider `Fc1cc(F)cc(Sc2ccc3[nH]nc(C#Cc4ccccn4)c3c2)c1` [DYX-086, 5-((3,5-difluorophenyl)thio)-3-(pyridin-2-ylethynyl)-1H-indazole], for which the IC50 in assay [1] was 111 nM; in assay [2], 3600 nM; in assay [3], 3710 nM; in assay [4], 241 nM; in assay [5], 2600 nM; in assay [6], 54.2 nM.
Turning to `Fc1cc(F)cc(Sc2ccc3[nH]nc(/C=C/c4ccccn4)c3c2)c1` [DYX-090, (E)-5-((3,5-difluorophenyl)thio)-3-(2-(pyridin-2-yl)vinyl)-1H-indazole], the IC50 in assay [1] came out at 35.7 nM; in assay [2], 480 nM; in assay [3], 158 nM; in assay [4], 79.9 nM; in assay [5], 295 nM; in assay [6], 9.9 nM.
Consider `Fc1cc(F)cc(Oc2ccc3[nH]nc(C#Cc4ccccn4)c3c2)c1` [DYX-092, 5-(3,5-difluorophenoxy)-3-(pyridin-2-ylethynyl)-1H-indazole], for which the IC50 in assay [1] came out at 200 nM; in assay [2], 3060 nM; in assay [3], 2770 nM; in assay [4] it was 310 nM; in assay [5] it was 2610 nM; in assay [6] it was 51.7 nM.
Turning to `Fc1cc(F)cc(Oc2ccc3[nH]nc(/C=C/c4ccccn4)c3c2)c1` [DYX-101, (E)-5-(3,5-difluorophenoxy)-3-(2-(pyridin-2-yl)vinyl)-1H-indazole], the IC50 in assay [1] amounted to 24.8 nM; in assay [2] it was 595 nM; in assay [3], 500 nM; in assay [4] it was 36.6 nM; in assay [5], 571 nM; in assay [6] it was 21.8 nM.
As to `O=S(=O)(c1cc(F)cc(F)c1)c1ccc2[nH]nc(C#Cc3ccccn3)c2c1` [DYX-108, 5-((3,5-difluorophenyl)sulfonyl)-3-(pyridin-2-ylethynyl)-1H-indazole], the IC50 came out at 21.4 nM in assay [1]; 888 nM in assay [2]; 749 nM in assay [3]; 43.1 nM in assay [4]; 914 nM in assay [5]; 8.1 nM in assay [6].
As for `O=S(=O)(c1cc(F)cc(F)c1)c1ccc2[nH]nc(/C=C/c3ccccn3)c2c1` [DYX-114, (E)-5-((3,5-difluorophenyl)sulfonyl)-3-(2-(pyridin-2-yl)vinyl)-1H-indazole], the concentration for half-maximal inhibition (IC50) in assay [1] is 2.8 nM; in assay [2], 411 nM; in assay [3], 155 nM; in assay [4] it was 7 nM; in assay [5] it was 175 nM; in assay [6] it was 1.2 nM.
With `Fc1cc(F)cc(-c2ccc3[nH]nc(C#Cc4ccccn4)c3c2)c1` [DYX-115, 5-(3,5-difluorophenyl)-3-(pyridin-2-ylethynyl)-1H-indazole], the half-maximal inhibitory concentration (IC50) in assay [1] was above 1000 nM; in assay [2], above 10000 nM; in assay [3] it was above 10000 nM; in assay [4], above 1000 nM; in assay [5] it was above 10000 nM; in assay [6] it was above 1000 nM.
On to `Fc1cc(F)cc(-c2ccc3[nH]nc(/C=C/c4ccccn4)c3c2)c1` [DYX-119, (E)-5-(3,5-difluorophenyl)-3-(2-(pyridin-2-yl)vinyl)-1H-indazole], for which the IC50 was 226 nM in assay [1]; above 10000 nM in assay [2]; above 10000 nM in assay [3]; above 1000 nM in assay [4]; above 10000 nM in assay [5]; 648 nM in assay [6].
Regarding `Fc1cc(F)cc(Nc2ccc3[nH]nc(C#Cc4ccccn4)c3c2)c1` [DYX-129, N-(3,5-difluorophenyl)-3-(pyridin-2-ylethynyl)-1H-indazol-5-amine], the half-inhibitory concentration (IC50) in assay [1] is 575 nM; in assay [2], 9980 nM; in assay [3] it was 3150 nM; in assay [4], above 1000 nM; in assay [5], 2800 nM; in assay [6] it was above 1000 nM.
On to `CN(c1cc(F)cc(F)c1)c1ccc2[nH]nc(C#Cc3ccccn3)c2c1` [DYX-130, N-(3,5-difluorophenyl)-N-methyl-3-(pyridin-2-ylethynyl)-1H-indazol-5-amine], for which the half-inhibitory concentration (IC50) in assay [1] turned out to be 235 nM; in assay [2], 3810 nM; in assay [3], 3090 nM; in assay [4], 993 nM; in assay [5], 9840 nM; in assay [6], 319 nM.
With `Fc1cc(F)cc(COc2ccc3[nH]nc(C#Cc4ccccn4)c3c2)c1` [DYX-131, 5-((3,5-difluorobenzyl)oxo)-3-(pyridin-2-ylethynyl)-1H-indazole], the IC50 in assay [1] amounted to 20 nM; in assay [2] it was 2900 nM; in assay [3], 2210 nM; in assay [4], 71.3 nM; in assay [5], 1610 nM; in assay [6], 31.3 nM.
In the case of `Fc1cc(F)cc(COc2ccc3[nH]nc(/C=C/c4ccccn4)c3c2)c1` [DYX-132, (E)-5-((3,5-difluorobenzyl)oxo)-3-(2-(pyridin-2-yl)vinyl)-1H-indazole], the half-maximal inhibitory concentration (IC50) is 3 nM in assay [1]; 156 nM in assay [2]; 96.2 nM in assay [3]; 9.8 nM in assay [4]; 178 nM in assay [5]; 3.3 nM in assay [6].
For the compound `Clc1cccc(Cc2ccc3[nH]nc(C#Cc4ccccn4)c3c2)c1` [DYX-134Q, 5-(3-chlorobenzyl)-3-(pyridin-2-ylethynyl)-1H-indazole], the IC50 in assay [1] was 40.3 nM; in assay [2], above 10000 nM; in assay [3] it was 2650 nM; in assay [4], 124 nM; in assay [5] it was 4620 nM; in assay [6], 91.9 nM.
In the case of `Clc1cccc(Cc2ccc3[nH]nc(/C=C/c4ccccn4)c3c2)c1` [DYX-134X, (E)-5-(3-chlorobenzyl)-3-(2-(pyridin-2-yl)vinyl)-1H-indazole], the 50% inhibitory concentration (IC50) in assay [1] is 28.3 nM; in assay [2], 2360 nM; in assay [3] it was 846 nM; in assay [4] it was 211 nM; in assay [5], 1880 nM; in assay [6] it was 70.9 nM.
As to `COc1cccc(Cc2ccc3[nH]nc(C#Cc4ccccn4)c3c2)c1` [DYX-135Q, 5-(3-methoxybenzyl)-3-(pyridin-2-ylethynyl)-1H-indazole], the IC50 in assay [1] is 211 nM; in assay [2] it was above 10000 nM; in assay [3] it was above 10000 nM; in assay [4] it was 817 nM; in assay [5], above 10000 nM; in assay [6] it was 292 nM.
With `COc1cccc(Cc2ccc3[nH]nc(/C=C/c4ccccn4)c3c2)c1` [DYX-135X, (E)-5-(3-methoxybenzyl)-3-(2-(pyridin-2-yl)vinyl)-1H-indazole], the IC50 in assay [1] stood at 22.5 nM; in assay [2], 2990 nM; in assay [3], 2400 nM; in assay [4], 70.5 nM; in assay [5] it was 2980 nM; in assay [6], 49.4 nM.
Turning to `N#Cc1cccc(Cc2ccc3[nH]nc(/C=C/c4ccccn4)c3c2)c1` [DYX-136X, (E)-3-((3-(2-(pyridin-2-yl)vinyl)-1H-indazol-5-yl)methyl)benzonitrile], the IC50 in assay [1] was 5.8 nM; in assay [2], 603 nM; in assay [3] it was 733 nM; in assay [4], 91 nM; in assay [5], 1070 nM; in assay [6] it was 4.8 nM.
For the compound `Cc1cccc(Cc2ccc3[nH]nc(C#Cc4ccccn4)c3c2)c1` [DYX-137Q, 5-(3-methylbenzyl)-3-(pyridin-2-ylethynyl)-1H-indazole], the concentration for half-maximal inhibition (IC50) in assay [1] is 91.1 nM; in assay [2], above 10000 nM; in assay [3], above 10000 nM; in assay [4] it was 397 nM; in assay [5], above 10000 nM; in assay [6] it was 213 nM.

In general, IC50 refers to the concentration that gives 50% inhibition.

The values are drawn from US20220281821A1, “INDAZOLE COMPOUNDS AND THEIR PHARMACEUTICAL COMPOSITIONS” (Jinan University, priority 2019, published 2022).
